Measurements: patent publication US20080045499A1, “Preferential Inhibition of Presenilin-1” (Elan Pharmaceuticals, Inc., priority 2006, published 2008)
Where two headings read alike, the source gives them in different places.

What was measured:
293sw = 293sw IC50 of gamma-secretase inhibitors; format: cell-based
[1] = biological target: T1, Presenilin-1-comprised γ-secretase (Homo sapiens, UniProt P49768); test: Aβ1-x ELISA in Presenilin-1 transfected PS1/PS2 double knockout mouse fibroblasts; format: cell-based; conditions: Aβ1-x, Presenilin-1 transfected cells, overnight
T1 construct: expressed in transfected cells; host or cells: mouse fibroblasts derived from PS1/PS2 double knockout cells, pCF vector
Source text: (§1) A131-x represents any Aβ peptides longer than Aβ1-23, including Aβ38, Aβ40, and Aβ42, since Aβ1-x is defined operationally by an ELISA assay using proprietary antibody mAb 266 for capture and proprietary antibody mAb 3D6 for detection. The epitope for mAb266 is Aβ16-23, and the epitope for mAb 3D6 is Aβ1-5. […] Aβ40 ELISA employed antibodies mAb 266 as capture and 2G3 (specific for Ab40) as detection, respectively. Furthermore, Aβ42 ELISA employed antibodies mAb 266 as capture and 21F12 as detection, respectively. Hybridomas producing antibodies against Aβ16-23 were generated by standard murine fusion procedures as detailed in Kohler and Milstein (Nature 256:495 1975) and U.S. Pat. No. 4,666,829 which are hereby incorporated by reference in their entireties. See also “Detailed Description” herein. Briefly, two BALB/c mice immunized with Aβ13-28 conjugated to 2C-11 (a T-cell receptor monoclonal antibody) were sacrificed and the spleens removed. Mixed splenocytes were obtained by pressing the spleens through a 30 mesh stainless steel screen. These were fused with P3X63Ag8 murine myeloma cells (aminopterin sensitive) at a fusion ratio of 10:1 in 35% polyethylene-glycol. These cells were plated out in 96 well tissue culture plates in the presence of 2×10^6 thymocytes/ml. Hybridomas were selected for by growing the cells in the presence of aminopterin poisoned Dulbecco's modified Eagle's media augmented with hypoxanthine, thymine and 10% fetal bovine serum. Hybridomas were screened for reactivity against Aβ13-28 and AAP protein via ELISA. Positive clones were sub-cloned twice. Aliquots of the clones were frozen and stored in liquid nitrogen. Supernatants from positive clones were produced in large quantities for further purification of monoclonal antibodies.
(§2) For ELISA assays, each well of 96-well ELISA plates was coated with 100 μl of 10 μg/ml 266 in Well Coating Buffer (pH 8.5) at 4 degrees overnight, and blocked with 0.25% human BSA solution at 25 degrees for 120 minutes. The plate can be used directly without wash, after removing blocking solution.
(§3) ELISA assays were performed at room temperature. Fifty μl of conditioned medium from overnight culture of transfected cells, with or without gamma secretase inhibitors, were added to each well of ELISA plates, and incubated for 1 hour. After washing plates with Tris-buffered saline (TBS) plus 0.05% Tween-20, 50 μl biotinylated 3D6 antibody at 0.5 μg/ml was added to each well and incubate for 45 minutes. […] Next, plates were washed with Tris-buffered saline (TBS) plus 0.05% Tween-20, and 50 μl substrate (1-step slow TMB-Elisa, Pierce, Woburn, Mass., USA, catalogue number: 34024) was added to each well and incubated for 15 min. Finally, substrate reactions were terminate by adding to each well 15 ul 2 NH2SO4, and OD readings were obtained on SpectraMax Plus (Molecular Devices, Sunnyvale, Calif., USA). The Aβ concentration of samples was then obtained by comparing sample OD readings to those of standards.
(§4) EC50 values were derived by curve fitting of Aβ1-x levels, for samples treated with various concentrations of gamma secretase inhibitors, with XLfit software program (IDBS, Alameda, Calif., USA). Differences in EC50 values obtained for Presenilin-1 transfected cells and Presenilin-2 transfected cells exposed to a test compound served as an indicator of differential inhibition.
(§5) Transfected mouse fibroblasts derived from the PS1/PS2 double knockout cells are grown at 37 degree under 10% CO2 in Dulbecco's modified Eagle's medium (DMEM) containing 2-10% fetal bovine serum (FBS) and 100 μg/ml penicillin/streptomycin (Pen/Strp) (Invitrogen Corporation, Carlsbad, Calif., USA).
(§6) Cell culture medium is then removed from the transfected cell lines and analyzed for Aβ1-x levels by ELISA assay, as described in Example 1. ELISA assays are performed using ELISA plates coated with the mAb 266 to capture Aβ peptides and then by detecting Aβ peptides with biotinylated mAb 3D6.

[2] = biological target: T2, Presenilin-2-comprised γ-secretase (Homo sapiens, UniProt P49810); test: Aβ1-x ELISA in Presenilin-2 transfected PS1/PS2 double knockout mouse fibroblasts; format: cell-based; conditions: for EC50: Aβ1-x, Presenilin-2 transfected cells, overnight; for inhibition at 10 µM: compound concentration of 10 uM, estimated from the inhibition curve
T2 construct: expressed in transfected cells; host or cells: mouse fibroblasts derived from PS1/PS2 double knockout cells, pCF vector
Source text: as §1, §2, §3, §4, §5, §6

[3] = system: Presenilin-1-comprised γ-secretase relative to Presenilin-2-comprised γ-secretase; test: PS1/PS2 selectivity: ratio of EC50 in Presenilin-2 and Presenilin-1 transfected cells; format: cell-based, human; conditions: EC50 of Presenilin-2 transfected cells over Presenilin-1 transfected cells
Source text: as §4
Cell culture medium is then removed from the transfected cell lines and analyzed for Aβ1-x levels by ELISA assay, as described in Example 1. ELISA assays are performed using ELISA plates coated with the mAb 266 to capture Aβ peptides and then by detecting Aβ peptides with biotinylated mAb 3D6. EC50 values are derived for all of the test compounds. Differences in EC50 values obtained for Presenilin-1 transfected cells and Presenilin-2 transfected cells exposed to a test compound serve as an indicator of differential inhibition.
For example, several tested compounds are sulfonamide compounds, while several are non-sulfonamide compounds. The ratio of the EC50 value obtained for Presenilin-2 transfected cells and Presenilin-1 transfected cells (indicated in the last column of Table I) indicates the degree to which the test compound is capable of preferentially inhibiting Presenilin-1. […] In Table 2, the values shown in columns A, B and C are EC50 values (nM). Where inhibition was very low, EC50 values were not generated by the program; thus EC50 values are not provided. Rather, percent of inhibition was estimated based on the inhibition curve generated by the program. Percentages indicate percentage inhibition at a compound concentration of 10 uM. […]

[4] = column A, read-out: PS1 EC50 (nM) A
[5] = column B, read-out: PS1 EC50 (nM) B
[6] = column C, read-out: PS1 EC50 (nM) C
[7] = column A, read-out: PS2 EC50* (nM) A
[8] = column B, read-out: PS2 EC50* (nM) B
[9] = column A, read-out: PS2 percentage inhibition, column A
[10] = column B, read-out: PS2 percentage inhibition, column B
[11] = column C, read-out: PS2 EC50* (nM) C

Row | SMILES | IC50 (293sw) [nM] | EC50 [1, 4] [nM] | EC50 [1, 5] [nM] | EC50 [1, 6] [nM] | EC50 [2, 7] [nM] | EC50 [2, 8] [nM] | PS2/PS1 EC50 ratio [3] | inhibition at 10 µM [2, 9] [%] | inhibition at 10 µM [2, 10] [%] | EC50 [2, 11] [nM]
1 | CCS(=O)(=O)CC[C@@H](C)N(c1cc(Cl)ccc1Cl)S(=O)(=O)c1ccc(Cl)cc1 | 182 | 153 | 868 | 598 | 5000 | 5700 | 10 |  |  | 
2 | CSc1ncccc1-c1nc(CN([C@@H]2CCCCNC2=O)S(=O)(=O)c2ccc(Cl)cc2)no1 | 112 | 212 | 116 |  | 2100 | 2580 | 11 |  |  | 
3 | O=C1NCCCC[C@H]1N(Cc1ccc(Br)cc1)S(=O)(=O)CC(F)(F)F | 308 | 1280 | 686 |  |  |  | >10 | 20 | 19 | 
4 | O=C1NCCCC[C@H]1N(Cc1ccc2snnc2c1)S(=O)(=O)c1ccc(Cl)cc1 | 8 | 18 | 23 |  | 922 | 951 | 47 |  |  | 
5 | C[C@H](NC(=O)[C@@H](O)c1cc(F)cc(F)c1)C(=O)N[C@H](C(=O)NCC1CN(c2ccccc2)CCO1)c1ccccc1 (stereo partly drawn) | 41 | 10 | 37 | 17.5 | 45 | 44 | 2 |  |  | 
6 | O=C1NCCCC[C@H]1N(Cc1ccc2nccnc2c1)S(=O)(=O)c1ccc(Cl)cc1 | 9 | 36 | 31 |  | 1410 | 1040 | 37 |  |  | 
7 | C[C@@H](NC(=O)c1ccc(CN([C@@H]2CCCCNC2=O)S(=O)(=O)c2ccc(Cl)cc2)cc1)c1ccccc1 | 16 | 57 | 44 |  | 60 | 91 | 1.5 |  |  | 
8 | CCCCN([C@@H]1CCCCNC1=O)S(=O)(=O)c1ccc(Cl)cc1 | 192 | 1410 | 928 |  |  |  | >10 | 26 | 15 | 
9 | O=C1NCCCC[C@H]1N(Cc1ccc(Br)cc1)S(=O)(=O)c1ccc(Cl)nc1 | 118 | 92 | 189 | 87 | 1570 | 2290 | 31 |  |  | 
10 | Cn1nnc2cc(CN([C@@H]3CCCCNC3=O)S(=O)(=O)c3ccc(Cl)nc3)ccc21 | 238 | 84 | 53 | 114 | 1980 | 1840 | 23 |  |  | 
11 | C[C@H](NC(=O)[C@@H](O)c1cc(F)cc(F)c1)C(=O)Nc1cc(C(C)(C)c2ccccc2)n[nH]1 | 1 | 8.2 | 8.3 | 19 | 26 | 23 | 2 |  |  | 
12 | COc1ccc(CN([C@@H](CO)CC(C)C)S(=O)(=O)c2ccc(Cl)cc2)cc1OC | 123 | 385 | 364 |  |  |  | ˜26 | 47 | 48 | 
13 | O=C1NCCCC[C@H]1N(Cc1ccc(-c2nccs2)cc1)S(=O)(=O)c1ccc(Cl)cc1 | 77 | 30 | 50 | 74 | 585 | 412 | 10 |  |  | 553
14 | COc1ccc(CN([C@@H]2CCCCNC2=O)S(=O)(=O)c2ccc(Cl)cc2)cc1OC | 126 | 91 | 89 | 109 | 1290 | 1980 | 27 |  |  | 4540
15 | C/C(=C\c1ccccc1)CN([C@@H]1CCNC1=O)S(=O)(=O)c1ccc(Cl)cc1 | 337 | 2170 | 1980 |  |  |  | >10 | 1 | 0 | 
16 | O=C(NCc1ccccc1)c1ccc(CN([C@@H]2CCCCNC2=O)S(=O)(=O)c2ccc(Cl)cc2)cc1 | 10 | 19 | 19 |  | 30 | 38 | 1.8 |  |  | 
17 | CCC(C)N(C(C)CC)S(=O)(=O)c1ccc(Cl)nc1 (stereo not drawn) | 388 | 1390 | 787 |  | 5860 | 3320 | 4 |  |  | 
